# Experimental data taken from patent US4241056A, “Penicillins and salts thereof” (Boehringer Ingelheim GmbH, priority 1978, dated 1980).
# Where two headings read alike, the source gives them in different places.
# Assays:
# pseud. aerug. hamburg. = test: Influence of the size of the inoculum on the MIC-values; format: cell-based; details: Pseudomonas aeruginosa
# Method: (§1) For the penicillins C and H, which are typical representatives for this invention, the influence of the size of the inoculum on the MIC-values against ps. aerug. hamburg. and E. coli ATCC 11775 in the microtiter system was determined. Thereby 3 different sizes of inoculum (3.3×10^6, 3.3×10^4 and 3.3×10^2 in E. coli and 4.7×10^6, 4.7×10^4 and 4.7×10^2 in pseudomonas) were used. The reference system was again penicillin Q.
# E. coli ATCC 11775 [1] = test: as above; format: cell-based; details: Escherichia coli
# Method: as §1
# [2] = test system: streptococcus faecalis ATCC 10541; test: MIC, serial dilution test in the microtiter system; format: cell-based; details: Enterococcus faecalis, ATCC10541, 18 h; strept. faecal.; 37° C., 18-20 hours
# Method: (§2) The tests were performed according to the method of the serial dilution test in the microtiter system. The effect of the substances on bacteriostasis was examined in a fluid medium. The activity on bacteriostatis was examined at the following concentrations:
# (§3) 10 gm of peptone, 8 gm of meat extract-oxoid, 3 gm of sodium chloride, 2 gm of sec. sodium phosphate were diluted with distilled water to 1000 ml (pH 7.2-7.4). Only in the test against streptococci 1% of glucose was added. The age of the primary cultures was about 20 hours. The standardizations of the pathogen suspension was effected by using a photometer according to "Eppendorf" (test tube diameter 14 mm, filter 546 nm) with the aid of the turbidity of a comparison suspension consisting of barium sulfate, this suspension being prepared by addition of 3.0 ml of 1% barium chloride solution to 97 ml of 1% sulfuric acid. After the standardization, streptococcus aronson were further diluted to a concentration of 1:15 and the other germs to a concentration of 1:1500 by menas of a sodium chloride solution.
# (§4) 16 mg of the test substance were put into a 10 ml measuring flask and filled up to the mark with the solvent. The further dilution series was standardized with distilled water or the respective solvent.
# (§5) The cavities of the microtiter plates were filled with 0.2 ml of nutrient medium. Then, 0.01 ml of the corresponding test substance dilution was added and inoculated with 0.01 ml of the standardized suspension. The bacteria were incubated at 37° C. for 18-20 hours. Control tests merely using the solvent were carried out simultaneously.
# (§6) The measurement was carried out macroscopically to determine the minimal inhibitory (threshold) concentration, i.e. the lowest still bacteriostatically effective concentration.
# (§7) Staphylococcus aureus SG 511, streptococcus aronson, streptococcus faecalis ATCC 10541, escherichia coli ATCC 9637, 11 775 and escherichia coli 12593/74 (β-lactamase carrier), pseudomonas aeruginosa hamburgensis and ATCC 10145, serratia marcescens ATCC 13 880, klebsiella pneumoniae ATCC 10 031 and 272 and proteus mirabilis hamburgensis.
# [3] = test system: klebsiella pneumoniae ATCC 10 031; test: MIC, serial dilution test in the microtiter system; format: cell-based; details: 18 h, klebs pneum ATCC 10031, 37° C., 18-20 hours
# Method: as §2, §3, §4, §5, §6, §7
# streptococcus aronson = test: MIC, serial dilution test in the microtiter system; format: cell-based; details: 18 h, strept. aronson, 1% glucose added, 37° C., 18-20 hours
# Method: as §2, §3, §4, §5, §6, §7
# [4] = test system: escherichia coli ATCC 11775; test: MIC, serial dilution test in the microtiter system; format: cell-based; details: ATCC11775, 18 h, E. coli ATCC 11775, 37° C., 18-20 hours
# Method: as §2, §3, §4, §5, §6, §7
# [5] = test system: Staphylococcus aureus SG 511; test: MIC, serial dilution test in the microtiter system; format: cell-based; details: SG511, 18 h, Staph. Aureus SG 511, 37° C., 18-20 hours
# Method: as §2, §3, §4, §5, §6, §7
# [6] = test system: proteus mirabilis hamburgensis; test: MIC, serial dilution test in the microtiter system; format: cell-based; details: 18 h, prot. mirabilis, 37° C., 18-20 hours
# Method: as §2, §3, §4, §5, §6, §7
# [7] = test system: serratia marcescens ATCC 13 880; test: MIC, serial dilution test in the microtiter system; format: cell-based; details: ATCC13, 18 h, serrat marcesc., 37° C., 18-20 hours
# Method: as §2, §3, §4, §5, §6, §7
# [8] = test system: pseudomonas aeruginosa hamburgensis; test: MIC, serial dilution test in the microtiter system; format: cell-based; details: 18 h, pseud. aerug. hamb., 37° C., 18-20 hours
# Method: as §2, §3, §4, §5, §6, §7
# [9] = test system: pseudomonas aeruginosa ATCC 10145; test: MIC, serial dilution test in the microtiter system; format: cell-based; details: ATCC10145, 18 h, pseud. aerug. ATCC 10145, 37° C., 18-20 hours
# Method: as §2, §3, §4, §5, §6, §7
# [10] = test system: klebsiella pneumoniae 272; test: MIC, serial dilution test in the microtiter system; format: cell-based; details: 18 h, klebs pneum. 272, 37° C., 18-20 hours
# Method: as §2, §3, §4, §5, §6, §7
# [11] = test system: escherichia coli 12593/74 (β-lactamase carrier); test: MIC, serial dilution test in the microtiter system; format: cell-based; details: 18 h, E. coli 12593/74 (β-lactamase carrier), 37° C., 18-20 hours
# Method: as §2, §3, §4, §5, §6, §7
# [12] = test system: escherichia coli ATCC 9637; test: MIC, serial dilution test in the microtiter system; format: cell-based; details: ATCC9637, 18 h, E. coli ATCC 9637, 37° C., 18-20 hours
# Method: as §2, §3, §4, §5, §6, §7
# E. coli ATCC 11775 [13] = test: In vivo activity against experimental infection in mice; parameters: species or system mouse (NMRI); details: Escherichia coli, 168 h, 7 days observation, read-out: ED50 (dose at which 50% of the animals survived)
# Method: (§8) A number of compounds of this invention were tested in vivo in mice against experimental infections. Bacteria E. coli ATCC 11775 and pseudomonas aeruginosa walter were used as pathogens. An intraperitoneal infection with 0.2 ml of a 5% mucin suspension of the bacteria was induced. This corresponds to about 2×10^6 germs E. coli and 8×10^5 germs pseudomonas/mouse. Female NMRI mice were divided into groups of 10 animals each, two control groups remained untreated, the remaining groups were treated with different doses of the respective penicillins for the determination of the ED50 (dose at which 50% of the animals survived). The groups with the E. coli infection were treated with the substance 3 times on the first day (1, 4 and 7 hours post-infectionem) and for 2 days thereafter twice a day. The groups with the pseudomonas infection were treated with the substance applied 6 times on the first day (1, 3, 6, 9, 12, and 15 hours post-infectionem) and for 2 days thereafter twice a day. The observation time was in both cases 7 days.
# [14] = test system: pseudomonas aeruginosa walter; test: as above; parameters: species or system mouse (NMRI); details: sc, 168 h, subcutaneous, 7 days observation, read-out: ED50 (dose at which 50% of the animals survived)
# Method: as §8
# [15] = Serum (blood) level in rats; format: in vivo; details: rat, average from 3 rats; for concentration at 0.5 h: 30 min.; for concentration at 1 h: 60 min.; for concentration at 2 h: 120 min.
# Method: For the determination of the serum level in rats, typical representatives of the penicillins according to the invention were administered at a dosage of 10 mg/kg subcutaneously or 100 mg/kg per os to groups of 3 female FW 49 rats (weight 100 to 130 gm) each. Blood tests taken from the heart were worked up, and the obtained sera were tested by the cylinder test-agar diffusion method on plates with sarcina lutea ATCC 15957. The samples were compared with standard curves.
# Pseudomonas = details: in vivo as well as in vitro; cited from earlier work
# [16] = ATCC11775, inoculum 3.3 × 10^2 germs/ml
# [17] = ATCC11775, inoculum 3.3 × 10^4 germs/ml
# [18] = ATCC11775, inoculum 3.3 × 10^6 germs/ml
Compound,MIC (pseud. aerug. hamburg.; inoculum 4.7 × 10^2 germs/ml) [µg/mL],MIC [2] [µg/mL],MIC [3] [µg/mL],MIC (streptococcus aronson) [µg/mL],MIC [4] [µg/mL],MIC [5] [µg/mL],MIC [6] [µg/mL],MIC [7] [µg/mL],MIC [8] [µg/mL],MIC [9] [µg/mL],MIC [10] [µg/mL],MIC [11] [µg/mL],MIC [12] [µg/mL],"ED50 (E. coli ATCC 11775 [13]; ATCC11775, sc, subcutaneous) [mg/kg]",concentration at 0.5 h ([15]; oral 100 mg/kg) [ng/mL],concentration at 1 h ([15]; oral 100 mg/kg) [ng/mL],concentration at 2 h ([15]; oral 100 mg/kg) [ng/mL],"concentration at 0.5 h ([15]; sc, subcutaneous 10 mg/kg) [ng/mL]","concentration at 1 h ([15]; sc, subcutaneous 10 mg/kg) [ng/mL]","concentration at 2 h ([15]; sc, subcutaneous 10 mg/kg) [ng/mL]",also measured
"CC1(C)S[C@@H]2[C@H](NC(=O)[C@H](NC(=O)Nc3cnc(Nc4ccc(Cl)cc4)nc3O)c3ccc(O)cc3)C(=O)N2[C@H]1C(=O)O [H, D-α-[3-(2-p-chloroanilino-4-hydroxy-5-pyrimidyl)-ureido]-p-hydroxybenzyl-penicillin sodium]",2.5,5,5,0.08,0.6,1.25,0.6,1.25,2.5,1.25,2.5,80,1.25,–,–,–,–,–,–,–,MIC (pseud. aerug. hamburg.; inoculum 4.7 × 10^4 germs/ml): 2.5 µg/mL; MIC (pseud. aerug. hamburg.; inoculum 4.7 × 10^6 germs/ml): > 80 µg/mL; MIC (E. coli ATCC 11775 [1]; [16]): 0.3 µg/mL; MIC (E. coli ATCC 11775 [1]; [17]): 0.6 µg/mL; MIC (E. coli ATCC 11775 [1]; [18]): 1 µg/mL
"CC1(C)S[C@@H]2[C@H](NC(=O)[C@H](NC(=O)Nc3cncnc3O)c3ccc(O)cc3)C(=O)N2[C@H]1C(=O)O [Compound A, D-α-[3-(4-hydroxy-5-pyrimidyl)-ureido]-p-hydroxybenzylpenicillin sodium]",–,10,80,0.08,2.5,0.3,0.6,5,5,2.5,80,> 80,2.5,6,9100,9600,2900,9300,8600,400,"ED50 (E. coli ATCC 11775 [13]; ATCC11775, po, peroral): 50 mg/kg; ED50 [14]: 50 mg/kg"
CC1(C)S[C@@H]2[C@H](NC(=O)C(c3ccccc3)S(=O)(=O)O)C(=O)N2[C@H]1C(=O)O (stereo partly drawn) [Sulbenicillin],–,–,–,–,–,–,–,–,–,–,–,–,–,–,–,–,–,–,–,–,antipseudomonal activity (Pseudomonas): only a poor activity
"CC1(C)S[C@@H]2[C@H](NC(=O)[C@H](NC(=O)N3CCNC3=O)c3ccccc3)C(=O)N2[C@H]1C(=O)O [Q, reference compound]",5,–,–,–,10,–,–,–,10,5,–,–,20,35,800,600,300,2800,3700,400,"ED50 (E. coli ATCC 11775 [13]; ATCC11775, po, peroral): 320 mg/kg; ED50 [14]: 110 mg/kg; MIC (pseud. aerug. hamburg.; inoculum 4.7 × 10^4 germs/ml): 10 µg/mL; MIC (pseud. aerug. hamburg.; inoculum 4.7 × 10^6 germs/ml): > 80 µg/mL; MIC (E. coli ATCC 11775 [1]; [16]): 10 µg/mL; MIC (E. coli ATCC 11775 [1]; [17]): 10 µg/mL; MIC (E. coli ATCC 11775 [1]; [18]): 10 µg/mL"
CC1(C)S[C@@H]2[C@H](NC(=O)C(C(=O)O)c3ccccc3)C(=O)N2[C@H]1C(=O)O (stereo partly drawn) [Carbenicillin],–,–,–,–,–,–,–,–,–,–,–,–,–,–,–,–,–,–,–,–,antipseudomonal activity (Pseudomonas): only a poor activity
"CC(=O)Nc1ncc(NC(=O)N[C@@H](C(=O)N[C@@H]2C(=O)N3[C@@H]2SC(C)(C)[C@@H]3C(=O)O)c2ccc(O)cc2)c(O)n1 [Compound E, D-α-[3-(acetylamino-4-hydroxy-pyrimidyl)-ureido]-p-hydroxybenzyl-penicillin sodium]",–,10,80,0.3,2.5,1.25,1.25,10,2.5,2.5,80,> 80,5,15,13800,13900,13700,4100,5800,7700,–
"Cc1ncc(NC(=O)N[C@@H](C(=O)N[C@@H]2C(=O)N3[C@@H]2SC(C)(C)[C@@H]3C(=O)O)c2ccc(O)cc2)c(O)n1 [B, D-α-[3-(4-hydroxy-2-methyl-5-pyrimidyl)-ureido]-p-hydroxybenzyl-penicillin sodium]",–,10,80,0.3,1.25,1.25,0.6,5,5,2.5,80,80,2.5,5,–,18800,1900,–,7300,1100,–
"CC1(C)S[C@@H]2[C@H](NC(=O)[C@H](NC(=O)Nc3cnc(C4CC4)nc3O)c3ccc(O)cc3)C(=O)N2[C@H]1C(=O)O [C, D-α-[3-(2-cyclopropyl-4-hydroxy-5-pyrimidyl)-ureido]-p-hdroxybenzyl-penicillin sodium]",2.5,10,40,0.08,1.25,0.3,1.25,1.25,2.5,1.25,80,80,2.5,1.5,3300,4800,1000,5100,6800,400,"ED50 (E. coli ATCC 11775 [13]; ATCC11775, po, peroral): 30 mg/kg; ED50 [14]: 7 mg/kg; MIC (pseud. aerug. hamburg.; inoculum 4.7 × 10^4 germs/ml): 5 µg/mL; MIC (pseud. aerug. hamburg.; inoculum 4.7 × 10^6 germs/ml): > 80 µg/mL; MIC (E. coli ATCC 11775 [1]; [16]): 2.5 µg/mL; MIC (E. coli ATCC 11775 [1]; [17]): 2.5 µg/mL; MIC (E. coli ATCC 11775 [1]; [18]): 2.5 µg/mL"
